Experimental data: publication PMC5394417, “Investigating the molecular mechanism of positive and negative allosteric modulators in the calcium-sensing receptor dimer” (Scientific Reports, 2017)
Several values for one entry are separate records, joined by “and”; a condition that tells them apart may be missing. Equal entries are not always repeated.

Target: T1, HA-L797A CaSR mutant (Rattus norvegicus, UniProt P48442, L797A)
T1 construct: mGluR5 signal peptide (N); expressed in transfected cells; host or cells: HEK293T
T1 sequence (P48442 20-1079 L797A): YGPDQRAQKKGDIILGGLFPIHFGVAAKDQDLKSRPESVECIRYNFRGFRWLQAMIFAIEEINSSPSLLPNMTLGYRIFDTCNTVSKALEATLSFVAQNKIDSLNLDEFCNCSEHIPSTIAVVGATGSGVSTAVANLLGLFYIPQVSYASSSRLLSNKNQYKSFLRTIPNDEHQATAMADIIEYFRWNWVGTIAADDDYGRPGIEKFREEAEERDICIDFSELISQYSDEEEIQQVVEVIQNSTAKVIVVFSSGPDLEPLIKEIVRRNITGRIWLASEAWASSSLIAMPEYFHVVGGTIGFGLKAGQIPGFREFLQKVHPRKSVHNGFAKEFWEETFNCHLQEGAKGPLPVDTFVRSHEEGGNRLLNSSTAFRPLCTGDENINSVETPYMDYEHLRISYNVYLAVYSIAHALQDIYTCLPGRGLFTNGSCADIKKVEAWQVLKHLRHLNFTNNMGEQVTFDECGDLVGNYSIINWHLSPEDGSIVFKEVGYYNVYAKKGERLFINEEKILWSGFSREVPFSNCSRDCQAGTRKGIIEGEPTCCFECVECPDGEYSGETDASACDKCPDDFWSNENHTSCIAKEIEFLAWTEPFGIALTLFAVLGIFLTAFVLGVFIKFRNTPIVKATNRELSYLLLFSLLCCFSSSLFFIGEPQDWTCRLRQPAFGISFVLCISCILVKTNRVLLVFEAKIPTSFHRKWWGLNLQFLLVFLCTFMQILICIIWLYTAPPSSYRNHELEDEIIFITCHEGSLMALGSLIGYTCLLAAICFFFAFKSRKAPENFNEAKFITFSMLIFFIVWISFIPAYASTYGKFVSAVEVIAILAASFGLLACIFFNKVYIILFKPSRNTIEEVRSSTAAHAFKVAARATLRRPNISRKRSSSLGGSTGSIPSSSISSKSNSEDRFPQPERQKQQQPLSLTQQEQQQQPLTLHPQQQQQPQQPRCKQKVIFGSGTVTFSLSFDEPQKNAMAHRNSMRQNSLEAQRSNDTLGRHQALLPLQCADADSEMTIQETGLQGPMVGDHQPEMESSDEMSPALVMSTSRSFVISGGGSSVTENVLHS
Experiment: IP-One assay, HEK293T transiently transfected
Assay type: cell-based

## [Ca+2] [Ca^2+]
Ca^2+ alone
  EC50: 11.7 mM
  Hill coefficient ± S.E.M.: 3.22 ± 0.71
  pEC50 ± S.E.M.: 1.94 ± 0.04
Normalized to maximum response of WT CaSR
  Max ± S.E.M.: 25% and 25 ± 3.5%
